In article PMC7017153, “Assembly of a G-Quadruplex Repair Complex by the FANCJ DNA Helicase and the REV1 Polymerase” (Genes, 2019):

Assays:
(TTAGGG)4 8oxo1 = assay: Fluorescence spectroscopy, FANCJ AKKQ binding to (TTAGGG)4 8oxo1; set-up: species or system human; conditions: tryptophan fluorescence quenching, peptide 5 µM, excitation 280 nm; Buffer H (pH 7.5, 150 mM KCl), 25 °C; 1:1 model; 8oxoG at first guanine; average and 95% confidence interval, n = 3
Protocol: (§1) Equilibrium binding experiments were performed on a Cary Eclipse Fluorescence Spectrophotometer (Agilent Technologies, Santa Clara, CA, USA). Samples were maintained at 25 °C with a PCB 1500 water peltier system (Agilent). FANCJ peptide (5 µM) was placed in a microcuvette. Fluorescence spectra were collected from 300 nm to 450 nm (λexcitation = 280 nm) with slit widths set to 5 nm. A scan of Buffer H was used as a baseline. DNA substrate was titrated into the cuvette, and each mixture was equilibrated for 3 min prior to data collection. The extent of fluorescence quenching observed (ΔFobs) was calculated using the following equation, where F0 was the total fluorescence signal from the FANCJ peptide alone, and Fi was the total fluorescence intensity upon the ith addition of DNA:(1) ΔFobs=F0−Fi/F0
(§2) Binding isotherms were generated by plotting ΔFobs versus the total DNA concentration after correcting for sample dilution. The resulting curves were fit to a 1:1 interaction model using Scientist 3.0 software (Micromath, St. Louis, MO, USA) based on the following formulas, where A was the amplitude of fluorescence quenching and K was the equilibrium association constant. […] Fluorescence titrations were performed in triplicate. The reported values were determined from the average and 95% confidence interval of the three independent data-sets. […]

bioPEG12-(TTAGGG)4-8oxo5 = assay: Biolayer interferometry (BLI), AKKQ binding to bioPEG12-(TTAGGG)4-8oxo5; set-up: species or system human; conditions: 150 nM biotinylated G4 DNA loaded on streptavidin biosensor, peptide 32-0.5 µM, Buffer H (pH 7.5, 150 mM KCl), 25 °C, plateau Δλ, 1:1 model, average and 95% confidence interval, n = 3
Protocol: (§3) BLI assays were performed on a BLItz instrument (Pall Fortébio, Fremont, CA, USA). Streptavidin-coated biosensors were purchased from Pall Fortébio (Lot 1906281). Biosensors were hydrated in Buffer H for 10 min, and the baseline optical interference was recorded. A total of 150 nM of biotinylated G4 DNA or FANCJ PIP peptide was loaded onto the sensors over 2 min, after which they were washed with Buffer H. Binding reactions were initiated by placing the biosensors in analyte solutions at the indicated concentrations. After their interactions had reached an equilibrium, the sensors were returned to buffer to monitor dissociation of the complexes. Experiments were repeated in triplicate. BLI binding isotherms were generated by plotting the plateau values of the association phase versus total analyte concentration. These curves were fit to a 1:1 interaction model, as described above. The parameters reported were obtained from the average and 95% confidence interval of the three data sets.
(§4) We next validated our fluorescence spectroscopy results by biolayer interferometry (BLI). This technique measures the optical thickness of a biosensor surface, which can be used to examine the association and dissociation reactions of macromolecules. […] The optical interference pattern of the sensor alone was measured in Buffer H as an initial baseline (phase 1). […]

bioPEG12-(TTAGGG)4-8oxo1 = assay: Biolayer interferometry (BLI), AKKQ binding to bioPEG12-(TTAGGG)4-8oxo1; set-up: species or system human; conditions: 150 nM biotinylated G4 DNA loaded on streptavidin biosensor, peptide 32-0.5 µM, Buffer H (pH 7.5, 150 mM KCl), 25 °C, plateau Δλ, 1:1 model, average and 95% confidence interval, n = 3
Protocol: as §3, §4

(GGGT)4 8oxo5 = assay: Fluorescence spectroscopy, FANCJ AKKQ binding to (GGGT)4 8oxo5; conditions: tryptophan fluorescence quenching, peptide 5 µM, excitation 280 nm; Buffer H (pH 7.5, 150 mM KCl), 25 °C; 1:1 model; 8oxoG at fifth guanine; average and 95% confidence interval, n = 3
Protocol: as §1, §2

bioPEG12-(TTAGGG)4 = assay: Biolayer interferometry (BLI), AKKQ binding to bioPEG12-(TTAGGG)4; set-up: species or system human
Protocol: as §3, §4

(TTAGGG)4 8oxo5 = assay: Fluorescence spectroscopy, FANCJ AKKQ binding to (TTAGGG)4 8oxo5; set-up: species or system human; conditions: tryptophan fluorescence quenching, peptide 5 µM, excitation 280 nm; Buffer H (pH 7.5, 150 mM KCl), 25 °C; 1:1 model; 8oxoG at fifth guanine; average and 95% confidence interval, n = 3
Protocol: as §1, §2

[1] = tested on: (TTAGGG)4 human telomeric G4 DNA; assay: Fluorescence spectroscopy, FANCJ AKKQ binding to (TTAGGG)4; conditions: tryptophan fluorescence quenching, peptide 5 µM, excitation 280 nm, 300-450 nm; Buffer H (20 mM HEPES pH 7.5, 150 mM KCl, 5 mM TCEP, 5% (v/v) glycerol), 25 °C; 1:1 model; average and 95% confidence interval, n = 3
Protocol: as §1, §2

(GGGT)4 8oxo1 = assay: Fluorescence spectroscopy, FANCJ AKKQ binding to (GGGT)4 8oxo1
Protocol: as §1, §2

(GGGT)4 = assay: Fluorescence spectroscopy, FANCJ AKKQ binding to (GGGT)4; conditions: tryptophan fluorescence quenching, peptide 5 µM, excitation 280 nm; Buffer H (pH 7.5, 150 mM KCl), 25 °C; 1:1 model; average and 95% confidence interval, n = 3
Protocol: as §1, §2

Sequence: SPEKTTLAAKLSAKKQASIW [FANCJ AKKQ]
- K8oxo1 (equilibrium association constant) ((TTAGGG)4 8oxo1): 1.3 ± 0.4 × 10^6 M^−1
- K8oxo5 (equilibrium constant) (bioPEG12-(TTAGGG)4-8oxo5): 1.8 ± 0.2 × 10^5 M^−1
- K8oxo1 (equilibrium constant) (bioPEG12-(TTAGGG)4-8oxo1): 2.3 ± 0.8 × 10^5 M^−1
- K8oxo5 (equilibrium association constant) ((GGGT)4 8oxo5): 4.4 ± 0.6 × 10^5 M^−1
- K (equilibrium constant) (bioPEG12-(TTAGGG)4; BLI, 150 nM biotinylated G4 DNA loaded on streptavidin biosensor, peptide 64-0.5 µM, Buffer H (pH 7.5, 150 mM KCl), 25 °C, plateau Δλ, 1:1 model, average and 95% confidence interval, n = 3): 9.4 ± 1.1 × 10^4 M^−1
- BLI binding constants compared to the fluorescence measurements (bioPEG12-(TTAGGG)4; human telomeric G4, native, 8oxo1 and 8oxo5): about one order of magnitude weaker compared to the fluorescence measurements
- K8oxo5 (equilibrium association constant) ((TTAGGG)4 8oxo5): 1.4 ± 0.5 × 10^6 M^−1
- K (equilibrium association constant) [1]: 1.6 ± 0.7 × 10^6 M^−1
- Increase of equilibrium constant by oxidative damage ((GGGT)4 8oxo1; (GGGT)4 8oxo1 and 8oxo5 relative to (GGGT)4, fluorescence): 1.5-3 fold
- K8oxo1 (equilibrium association constant) ((GGGT)4 8oxo1; tryptophan fluorescence quenching, peptide 5 µM, excitation 280 nm, Buffer H (pH 7.5, 150 mM KCl), 25 °C, 1:1 model, 8oxoG at first guanine, average and 95% confidence interval, n = 3): 7.7 ± 0.7 × 10^5 M^−1
- K (equilibrium association constant) ((GGGT)4): 2.7 ± 0.4 × 10^5 M^−1
